Values after ≈ are worked out from the molar mass of the structure shown.
Legend:
Assay type in all cases: functional
[1] = system: Staphylococcus saprophyticus; assay: Antibacterial activity against Staphylococcus saprophyticus ATCC BAA 750 assessed as inhibition of bacterial growth
[2] = system: Staphylococcus saprophyticus; assay: Antibacterial activity against Staphylococcus saprophyticus ATCC 15305 assessed as inhibition of bacterial growth
[3] = system: Staphylococcus saprophyticus; assay: Antibacterial activity against Staphylococcus saprophyticus ATCC 49453 assessed as inhibition of bacterial growth
[4] = system: Staphylococcus saprophyticus; assay: Antibacterial activity against Staphylococcus saprophyticus ATCC 49907 assessed as inhibition of bacterial growth
Enterococcus faecium [5] = assay: Antibacterial activity against Vancomycin-resistant Enterococcus faecium 1014 assessed as inhibition of bacterial growth
Enterococcus faecium [6] = assay: Antibacterial activity against Vancomycin-resistant Enterococcus […] ATCC 700802 assessed as inhibition of bacterial growth
Enterococcus faecium [7] = assay: Antibacterial activity against Vancomycin-resistant Enterococcus […] ATCC 29212 assessed as inhibition of bacterial growth; conditions: Enterococcus faecalis
Staphylococcus aureus [8] = assay: Antibacterial activity against methicilin-resistant Staphylococcus aureus ATCC 700699 assessed as inhibition of bacterial growth
Staphylococcus aureus [9] = assay: Antibacterial activity against methicilin-resistant Staphylococcus aureus 42412 assessed as inhibition of bacterial growth
Staphylococcus aureus [10] = assay: Antibacterial activity against methicilin-resistant Staphylococcus aureus 21455 assessed as inhibition of bacterial growth
Staphylococcus aureus [11] = assay: Antibacterial activity against methicilin-resistant Staphylococcus aureus 1003 assessed as inhibition of bacterial growth
Staphylococcus aureus [12] = assay: Antibacterial activity against Staphylococcus aureus 29213 assessed as inhibition of bacterial growth
Staphylococcus aureus [13] = assay: Antibacterial activity against Staphylococcus aureus 4299 assessed as inhibition of bacterial growth
[14] = system: Staphylococcus epidermidis; assay: Antibacterial activity against Staphylococcus epidermidis 12228 assessed as inhibition of bacterial growth
Bacillus cereus = assay: Antibacterial activity against Bacillus cereus ATCC 11788 assessed as inhibition of bacterial growth
Bacillus subtilis = assay: Antibacterial activity against Bacillus subtilis ATCC 6633 assessed as inhibition of bacterial growth

SMILES	MIC [1]	MIC [2]	MIC [3]	MIC [4]	MIC (Enterococcus faecium [5])	MIC (Enterococcus faecium [6])	MIC (Enterococcus faecium [7])	MIC (Staphylococcus aureus [8])	MIC (Staphylococcus aureus [9])	MIC (Staphylococcus aureus [10])	MIC (Staphylococcus aureus [11])	MIC (Staphylococcus aureus [12])	MIC (Staphylococcus aureus [13])	MIC [14]	MIC (Bacillus cereus)	MIC (Bacillus subtilis)
CCC[C@@H]1NC(=O)[C@H](C)NC(=O)[C@H](NC(=O)[C@H](CO)NC(=O)[C@@H](NC(=O)[C@H](NC(=O)[C@@H](CCC(N)=O)NC(=O)[C@H](CO)NC(=O)[C@@H](NC(=O)[C@@H](Cc2ccccc2)NC)[C@@H](C)CC)[C@@H](C)CC)[C@@H](C)CC)[C@H](C)OC(=O)[C@H]([C@@H](C)CC)NC1=O	0.063 µg/mL (≈ 0.0531 µM)	0.063 µg/mL (≈ 0.0531 µM)	0.063 µg/mL (≈ 0.0531 µM)	0.063 µg/mL (≈ 0.0531 µM)	1 µg/mL (≈ 0.842 µM)	1 µg/mL (≈ 0.842 µM)	1 µg/mL (≈ 0.842 µM)	0.5 µg/mL (≈ 0.421 µM)	0.063 µg/mL (≈ 0.0531 µM)	0.125 µg/mL (≈ 0.105 µM)	0.25 µg/mL (≈ 0.211 µM)	0.125 µg/mL (≈ 0.105 µM)	0.063 µg/mL (≈ 0.0531 µM)	0.125 µg/mL (≈ 0.105 µM)	0.063 µg/mL (≈ 0.0531 µM)	0.063 µg/mL (≈ 0.0531 µM)
CCC[C@@H]1NC(=O)[C@H](C)NC(=O)[C@H](NC(=O)[C@H](CO)NC(=O)[C@@H](NC(=O)[C@H](NC(=O)[C@@H](CCC(N)=O)NC(=O)[C@H](CCCNC(=N)N)NC(=O)[C@@H](NC(=O)[C@@H](Cc2ccccc2)NC)[C@@H](C)CC)[C@@H](C)CC)[C@@H](C)CC)[C@H](C)OC(=O)[C@H]([C@@H](C)CC)NC1=O	0.063 µg/mL (≈ 0.0501 µM)	0.063 µg/mL (≈ 0.0501 µM)	0.063 µg/mL (≈ 0.0501 µM)	0.063 µg/mL (≈ 0.0501 µM)	1 µg/mL (≈ 0.796 µM)	1 µg/mL (≈ 0.796 µM)	2 µg/mL (≈ 1.59 µM)	0.25 µg/mL (≈ 0.199 µM)	0.063 µg/mL (≈ 0.0501 µM)	0.063 µg/mL (≈ 0.0501 µM)	0.125 µg/mL (≈ 0.0995 µM)	0.125 µg/mL (≈ 0.0995 µM)	0.063 µg/mL (≈ 0.0501 µM)	0.063 µg/mL (≈ 0.0501 µM)	0.063 µg/mL (≈ 0.0501 µM)	0.063 µg/mL (≈ 0.0501 µM)
CC[C@H](C)[C@H](NC(=O)[C@@H](Cc1ccccc1)NC)C(=O)N[C@@H](CCCNC(=N)N)C(=O)N[C@H](CCC(N)=O)C(=O)N[C@@H](C(=O)N[C@H](C(=O)N[C@@H](CO)C(=O)N[C@H]1C(=O)N[C@@H](CCCNC(=N)N)C(=O)N[C@@H](C2CCCCC2)C(=O)N[C@@H]([C@@H](C)CC)C(=O)O[C@H]1C)[C@@H](C)CC)[C@@H](C)CC	< 0.063 µg/mL	< 0.063 µg/mL	0.063 µg/mL (≈ 0.0456 µM)	0.063 µg/mL (≈ 0.0456 µM)	1 µg/mL (≈ 0.724 µM)	1 µg/mL (≈ 0.724 µM)	1 µg/mL (≈ 0.724 µM)	0.5 µg/mL (≈ 0.362 µM)	0.063 µg/mL (≈ 0.0456 µM)	0.5 µg/mL (≈ 0.362 µM)	0.5 µg/mL (≈ 0.362 µM)	0.25 µg/mL (≈ 0.181 µM)	0.063 µg/mL (≈ 0.0456 µM)	0.063 µg/mL (≈ 0.0456 µM)	1 µg/mL (≈ 0.724 µM)	0.063 µg/mL (≈ 0.0456 µM)
CCC[C@@H]1NC(=O)[C@H](CCCNC(=N)N)NC(=O)[C@H](NC(=O)[C@H](CO)NC(=O)[C@@H](NC(=O)[C@H](NC(=O)[C@@H](CCCNC(=N)N)NC(=O)[C@H](CCCNC(=N)N)NC(=O)[C@@H](NC(=O)[C@@H](Cc2ccccc2)NC)[C@@H](C)CC)[C@@H](C)CC)[C@@H](C)CC)[C@H](C)OC(=O)[C@H]([C@@H](C)CC)NC1=O	0.5 µg/mL (≈ 0.365 µM)	0.25 µg/mL (≈ 0.183 µM)	0.25 µg/mL (≈ 0.183 µM)	0.5 µg/mL (≈ 0.365 µM)	8 µg/mL (≈ 5.84 µM)	32 µg/mL (≈ 23.4 µM)	32 µg/mL (≈ 23.4 µM)	32 µg/mL (≈ 23.4 µM)	32 µg/mL (≈ 23.4 µM)	16 µg/mL (≈ 11.7 µM)	> 32 µg/mL	16 µg/mL (≈ 11.7 µM)	16 µg/mL (≈ 11.7 µM)	2 µg/mL (≈ 1.46 µM)	2 µg/mL (≈ 1.46 µM)	16 µg/mL (≈ 11.7 µM)
CC[C@H](C)[C@H](NC(=O)[C@@H](Cc1ccccc1)NC)C(=O)N[C@@H](CO)C(=O)N[C@H](CCCNC(=N)N)C(=O)N[C@@H](C(=O)N[C@H](C(=O)N[C@@H](CO)C(=O)N[C@H]1C(=O)N[C@@H](CCCNC(=N)N)C(=O)N[C@@H](C2CCCCC2)C(=O)N[C@@H]([C@@H](C)CC)C(=O)O[C@H]1C)[C@@H](C)CC)[C@@H](C)CC	0.125 µg/mL (≈ 0.0932 µM)	< 0.063 µg/mL	0.063 µg/mL (≈ 0.047 µM)	0.063 µg/mL (≈ 0.047 µM)	1 µg/mL (≈ 0.746 µM)	1 µg/mL (≈ 0.746 µM)	1 µg/mL (≈ 0.746 µM)	0.5 µg/mL (≈ 0.373 µM)	0.125 µg/mL (≈ 0.0932 µM)	0.25 µg/mL (≈ 0.186 µM)	0.5 µg/mL (≈ 0.373 µM)	0.5 µg/mL (≈ 0.373 µM)	0.5 µg/mL (≈ 0.373 µM)	0.063 µg/mL (≈ 0.047 µM)	1 µg/mL (≈ 0.746 µM)	0.063 µg/mL (≈ 0.047 µM)

From ChEMBL document CHEMBL5634143, “Development of teixobactin analogues containing hydrophobic, non-proteogenic amino acids that are highly potent against multidrug-resistant bacteria and biofilms” (Eur J Med Chem, 2023)
